# Entries after “also recorded” stand apart in the source; their conditions may differ.
# Legend:
# [1] = system: platelets; assay: platelet aggregation caused by platelet activating factor (PAF); assay type: cell-based
# Excerpt: (§1) PAF is a local mediator of thrombosis. Similarly, collagen exposure of vessel walls leads to the formation of […] clot in the vessels. Therefore, prevention of the formation of blood clots has direct implication in the treatment of thrombosis and associated cardiovascular diseases.
# (§2) PAF and collagen were used at their maximal concentrations which induced 100% aggregation of platelets.
# [2] = system: allergen-induced challenge; assay: relative potencies of different isomers of contignasterol against allergen-induced challenge
# Excerpt: Table 4 illustrates the relative potencies of different isomers of contignasterol against allergen-induced challenge.
# [3] = system: tracheal tissues; assay: ovalbumine (antigen)-induced contraction of tracheal tissues from sensitized guinea pigs; assay type: cell-based, guinea pig; conditions: antigen ovalbumine (OA)
# Excerpt: We have used the contignasterol as defined in paragraph one of the Summary to block bronchoconstriction induced in guinea pigs. Guinea pigs were sensitized to ovalbumine (OA) that can serve as an antigen. The trachea from these animals after exposure to the antigen (OA) contracted in a similar manner as to in vivo situation.
# [4] = system: platelets; assay: platelet aggregation caused by collagen; assay type: cell-based
# Excerpt: as §1, §2
# [5] = system: rat mast cells; conditions: induced by anti-IgE; cited from earlier work
Compound,inhibition at 10 µM [2] [%],inhibition of histamine release from rat mast cells (in words) [5],also measured
"CC(C)C1CC(O)OC([C@@H](C)[C@H]2CC(=O)[C@@H]3[C@@H]4[C@@H](O)[C@H](O)[C@H]5[C@@H](O)[C@H](O)CC[C@]5(C)[C@H]4CC[C@]23C)C1 (some centres unmarked) [Compound 1, contignasterol]",43,–,aggregation of platelets caused by PAF (in words) [1]: inhibited aggregation of platelets; contraction of trachea pretreated with contignasterol after exposure to antigen (in words) [3]: did not significantly contract; also recorded: inhibited airway smooth muscle contraction; aggregation of platelets caused by collagen (in words) [4]: inhibited aggregation of platelets
"CC(C)C1CC(O)OC([C@@H](C)[C@H]2CC(=O)[C@H]3[C@@H]4[C@@H](O)[C@H](O)[C@H]5[C@@H](O)[C@H](O)CC[C@]5(C)[C@H]4CC[C@]23C)C1 (some centres unmarked) [Compound 2, 14-epicontignasterol]",25,–,–
"COC1CC(C(C)C)CC([C@@H](C)[C@H]2CC(=O)[C@@H]3[C@@H]4[C@@H](O)[C@H](O)[C@H]5[C@@H](O)[C@H](O)CC[C@]5(C)[C@H]4CC[C@]23C)O1 (some centres unmarked) [Compound 3, Methyl-acetal Contignasterol]",12,–,–
"CC(C)C[C@]1(O)C[C@@H](C)[C@H]2[C@@H]1C(=O)[C@@H]1[C@@H]3[C@@H](O)[C@H](O)[C@H]4C[C@H](O)CC[C@]4(C)[C@H]3CC[C@]21C [xestobergsterol A, 23S-16β, 23-cyclo-3α, 6α, 7β, 23-tetrahydroxy-5α, 14β-cholestan-15-one]",–,potent inhibitors of histamine release,–
"CC(C)C[C@]1(O)C[C@@H](C)[C@H]2[C@@H]1C(=O)[C@@H]1[C@@H]3[C@@H](O)[C@H](O)[C@H]4C[C@H](O)[C@@H](O)[C@@H](O)[C@]4(C)[C@H]3CC[C@]21C [xestobergsterol B, 23S-16β, 23-cyclo-1β, 2β, 3α, 6α, 7β, 23-hexahydroxy-5α, 14β-cholestan-15-one]",–,potent inhibitors of histamine release,–

# Source: US5646138A, “Contignasterol compounds and pharmaceutical compositions comprising the same” (University of British Columbia, priority 1992, dated 1997)
